This is an account of results in PMC8583417, “Evaluation of the Antimicrobial Efficacy of N-Acetyl-L-Cysteine, Rhamnolipids, and Usnic Acid—Novel Approaches to Fight Food-Borne Pathogens” (International Journal of Molecular Sciences, 2021).

In brackets after ≈: the same amount, converted by molar mass. Marks after values point to notes of the source that are not given here.

Assay [1] has as its system S. Enteritidis ATCC 13076. Description: MIC for planktonic cell growth (A625nm). Particulars: for MICPC80: ≥80% inhibition, 24 h. Format: cell-based, Salmonella enterica Enteritidis. As for the experimental part:
(§1) Ten concentrations of NAC, RLs, and UA were tested to determine the minimum inhibitory concentration for planktonic growth, and subsequently, the six highest concentrations were applied on preformed biofilms to evaluate the biofilm eradication ability of the compounds. MIC was defined as the lowest substance concentration able to inhibit at least 80% of microbial growth (MICPC80 for planktonic cells, MICBC80 for further growth of biofilm cells), inhibit 80% of metabolic activity (MICBM80 for biofilm metabolic activity, MICMPB80 for metabolic activity of preformed biofilm), prevent biofilm formation by at least 80% (MICBF80 for biofilm formation), or reduce a preformed biofilm by at least 80% (MICBR80 for biofilm reduction). The results of MICs are summarized in Table 1 (planktonic cells) and Table 2 (biofilm-associated cells).
(§2) The determination of MICs was performed according to Chlumsky et al.. […] To evaluate planktonic cells growth (MICPC80) and further growth of biofilm cells (MICBC80), the optical density of the content of the microtiter plates was measured spectrophotometrically at 625 nm before and after 24 h (for biofilm formation) of cultivation or before and after additional 20 h incubation with the tested compound (for preformed biofilm). […] To evaluate the inhibition of biofilm formation (MICBF80) and reduction in preformed biofilms (MICBR80), biomass was quantified using crystal violet staining, and its metabolic activity (MICBM80 and MICMPB80) was estimated by using the MTT (thiazyl tetrazolium bromide, Sigma-Aldrich, USA) reduction assay, both measured spectrophotometrically at 595 nm.
(§3) All inhibitions were calculated using the formula of Chlumsky et al. below (Equation (1)):(1) A625(595)nm inhibition (%)=A625(595)nm (control) – A625(595)nm(natural substance)/A625(595)nm (control)× 100 where A625(595)nm (control) is the absorbance of bacterial suspension/biofilm itself, and A625(595)nm(natural substance) is the absorbance of the bacterial suspension/biofilm with the added natural substance (NAC, RLs, and UA). […]

The subject of assay [2] is S. aureus 1241. The experiment in a line: MIC for biofilm formation (crystal violet staining). Format: cell-based, Staphylococcus aureus. Particulars: ≥80% prevention, 24 h. As for the experimental part: as §1
as §2, with “al.. Briefly, 96-well flat-bottomed microtiter plates were inoculated with 75 µL (for biofilm formation) or 100 µL (for preformed biofilm) of bacterial suspension (A625nm 0.08 to 0.1) in technical triplicates and were then carefully mixed with the dilution series of the test substances (24 h cultivation at 25 °C for S. Infantis, 37 °C for other strains) or were directly cultivated to preform biofilms (18 h). For a positive control of bacterial growth, the inoculum was mixed with a pure sterile medium.” for “al..”
(§4) All inhibitions were calculated using the formula of Chlumsky et al. below (Equation (1)):(1) A625(595)nm inhibition (%)=A625(595)nm (control) – A625(595)nm(natural substance)/A625(595)nm (control)× 100 where A625(595)nm (control) is the absorbance of bacterial suspension/biofilm itself, and A625(595)nm(natural substance) is the absorbance of the bacterial suspension/biofilm with the added natural substance (NAC, RLs, and UA).
(§5) When the minimum inhibitory concentration could not be determined, the MIC was established as >the highest tested concentration for NAC, RLs, and UA.

The subject of assay [3] is S. aureus 816. The assay is described as above. In kind it is cell-based, Staphylococcus aureus. Particulars: ≥80% prevention, 24 h. As for the experimental part: as §1
as §2, with “al.. Briefly, 96-well flat-bottomed microtiter plates were inoculated with 75 µL (for biofilm formation) or 100 µL (for preformed biofilm) of bacterial suspension (A625nm 0.08 to 0.1) in technical triplicates and were then carefully mixed with the dilution series of the test substances (24 h cultivation at 25 °C for S. Infantis, 37 °C for other strains) or were directly cultivated to preform biofilms (18 h). For a positive control of bacterial growth, the inoculum was mixed with a pure sterile medium.” for “al..”
as §4, §5

Assay [4] concerns S. aureus 1241. Description: MIC for biofilm metabolic activity (MTT reduction assay). Particulars: ≥80% inhibition, 24 h. In kind it is cell-based, Staphylococcus aureus. As for the experimental part: as §1
as §2, with “al.. Briefly, 96-well flat-bottomed microtiter plates were inoculated with 75 µL (for biofilm formation) or 100 µL (for preformed biofilm) of bacterial suspension (A625nm 0.08 to 0.1) in technical triplicates and were then carefully mixed with the dilution series of the test substances (24 h cultivation at 25 °C for S. Infantis, 37 °C for other strains) or were directly cultivated to preform biofilms (18 h). For a positive control of bacterial growth, the inoculum was mixed with a pure sterile medium.” for “al..”
as §4, §5
(In general: Tetrazolium assays rely on reduction of a dye to a coloured formazan, in cell work by metabolically active cells.)

Assay [5] has as its system S. aureus 816. Described as above. Format: cell-based, Staphylococcus aureus. As to conditions: ≥80% inhibition, 24 h. On the procedure: as §1
as §2, with “al.. Briefly, 96-well flat-bottomed microtiter plates were inoculated with 75 µL (for biofilm formation) or 100 µL (for preformed biofilm) of bacterial suspension (A625nm 0.08 to 0.1) in technical triplicates and were then carefully mixed with the dilution series of the test substances (24 h cultivation at 25 °C for S. Infantis, 37 °C for other strains) or were directly cultivated to preform biofilms (18 h). For a positive control of bacterial growth, the inoculum was mixed with a pure sterile medium.” for “al..”
as §4, §5

In assay [6] the test system is S. Enteritidis ATCC 13076. Described as above. In kind it is cell-based, Salmonella enterica Enteritidis. Particulars: for MICBM80: ≥80% inhibition, 24 h. On the procedure: as §1, §2, §3
The test system of the next assay is S. Infantis S13. Description: MIC for further growth of biofilm cells, preformed biofilm (A625nm). Format: cell-based, Salmonella enterica Infantis. Particulars: for MICBC80: ≥80% inhibition, 18 h preformed biofilm, 20 h with substance. On the procedure:
as §1
(§6) The determination of MICs was performed according to Chlumsky et al.. Briefly, 96-well flat-bottomed microtiter plates were inoculated with 75 µL (for biofilm formation) or 100 µL (for preformed biofilm) of bacterial suspension (A625nm 0.08 to 0.1) in technical triplicates and were then carefully mixed with the dilution series of the test substances (24 h cultivation at 25 °C for S. Infantis, 37 °C for other strains) or were directly cultivated to preform biofilms (18 h). For a positive control of bacterial growth, the inoculum was mixed with a pure sterile medium. Furthermore, the sterile medium was included in the plate as a marker of potential microbial contamination. To evaluate planktonic cells growth (MICPC80) and further growth of biofilm cells (MICBC80), the optical density of the content of the microtiter plates was measured spectrophotometrically at 625 nm before and after 24 h (for biofilm formation) of cultivation or before and after additional 20 h incubation with the tested compound (for preformed biofilm). The difference of A625nm was considered as a measure of the ability of cells to grow in the presence of the tested substances. To evaluate the inhibition of biofilm formation (MICBF80) and reduction in preformed biofilms (MICBR80), biomass was quantified using crystal violet staining, and its metabolic activity (MICBM80 and MICMPB80) was estimated by using the MTT (thiazyl tetrazolium bromide, Sigma-Aldrich, USA) reduction assay, both measured spectrophotometrically at 595 nm.
as §4, §5

Another assay has as its system S. Infantis S59. The description is as above. Format: cell-based, Salmonella enterica Infantis. Particulars: for MICBC80: ≥80% inhibition, 18 h preformed biofilm, 20 h with substance. As for the experimental part: as §1, §6, §4, §5
Assay [7] has as its system S. Enteritidis ATCC 13076. The assay is described as above. In kind it is cell-based, Salmonella enterica Enteritidis. Particulars: for MICBC80: ≥80% inhibition, 18 h preformed biofilm, 20 h with substance. On the procedure:
as §1, §2, §3

Assay [8] relates to S. aureus 1241. The experiment in a line: MIC for reduction of preformed biofilm (crystal violet staining). Format: cell-based, Staphylococcus aureus. As to conditions: for maximal achieved inhibition (MICBR80 not reached), biofilm reduction: preformed biofilm, within tested concentrations; for MICBR80: ≥80% reduction of preformed biofilm (18 h), 20 h with substance. On the procedure: as §1, §6, §4, §5

Assay [9] concerns HCAEC (primary human coronary artery endothelial cells). Description: Acute cytotoxicity, resazurin assay. Format: cell-based. Particulars: 72 h. An excerpt:
(§7) To test the acute cytotoxicity of the compounds, the following cell lines were used: primary human renal tubular epithelial cells (HRTEC; Evercyte, Vienna, Austria); human keratinocytes (HaCat; Thermo Fisher Scientific, Waltham, MA, USA); human dermal fibroblasts (HDF; Merck, Kenilworth, NJ, USA); human epithelial kidney cells (HEK 293; ATCC, Manassas, VI, USA); primary human coronary artery endothelial cells (HCAEC; ATCC, Manassas, VI, USA). The cell lines were maintained in a proper cultivation medium—HaCat, HDF, and Hek 293 in DMEM; HRTEC in VCB; HCAEC in ProxUp. The cytotoxicity experiment was realized according to Tran et al.. Briefly, the cells were counted by the Cellometer Auto T4 (Nexcelom Bioscience, Lawrence, MA, USA), and the cell suspension containing a cell density of 10^5 cells/mL was split into the 96-well plate, with 100 µL per well. The plates were then incubated for 24 h at 37 °C in a humidified atmosphere of 5% CO2. Then, the plates were washed three times with PBS, and the tested natural compounds were added using binary dilution in a proper medium. After 72 h of incubation, the cell viability was tested by resazurin assay. The fluorescence was measured by a SpectraMax i3× microplate reader (San Jose, CA, USA) at a wavelength of 560 nm excitation/590 nm emission.
(§8) The cytotoxicity results are expressed as the average IC50 ± standard error of the mean (SEM). Values of IC50 were obtained by using the online tool Quest Graph IC50 Calculator (AAT Bioquest Inc., Sunnyvale, CA, USA). One-way analysis of variance (ANOVA) was used followed by Duncan’s post hoc test (p < 0.05) to show the differences between the groups. For ANOVA, the Statistica software (Tibco Software Inc., Palo Alto, CA, USA) was used in version 12.
For orientation: Alamar Blue is a resazurin reagent that responds to reducing activity.

In assay [10] the test system is HDF (human dermal fibroblasts). Description: Acute cytotoxicity, resazurin assay. Format: cell-based. Particulars: 72 h.
From the text: as §7, §8

The test system of assay [11] is HEK 293 (human epithelial kidney cells). Description: Acute cytotoxicity, resazurin assay. In kind it is cell-based.
From the text: as §7, §8

Assay [12] has as its system HRTEC (primary human renal tubular epithelial cells). The experiment in a line: Acute cytotoxicity, resazurin assay. In kind it is cell-based. As to conditions: 72 h.
From the text: as §7, §8

For assay [13], the system named is HaCat (human keratinocytes). Description: Acute cytotoxicity, resazurin assay. In kind it is cell-based. Particulars: 72 h.
From the text: as §7, §8

Regarding `CC(=O)c1c(O)c(C)c(O)c2c1OC1=CC(=O)C(C(C)=O)C(=O)C12C` (single isomer, unassigned; (+)) [UA, (+)-usnic acid], the “maximal achieved inhibition (MICPC80 not reached)” value in [1] (within tested concentrations) stood at 42%. In assay [1], this molecule yielded an MICPC80 greater than 31.3 µg/mL. The MICBF80 in the assay with S. aureus 1241 [2] and with S. aureus 816 [3] was 0.24 µg/mL throughout. Also, the MICBM80 is listed as 0.49 µg/mL in the assay with S. aureus 1241 [4], 0.24 µg/mL against S. aureus 816 [5] and greater than 31.3 µg/mL in assay [6]. Also, the “maximal achieved inhibition (MICBM80 not reached)” value in [6] (within tested concentrations) is on record as 45%. In addition, the entries for the “maximal achieved inhibition (MICBC80 not reached)” value (in the assay on S. Infantis S13 (within tested concentrations); in the assay on S. Infantis S59 (within tested concentrations); in assay [7] (within tested concentrations)) were 33%, 31% and 51%, respectively. Moreover, the MICBC80 (against S. Infantis S13; against S. Infantis S59; in [7]) was greater than 31.3 µg/mL in each case. The “maximal achieved inhibition (MICBR80 not reached), biofilm reduction” value with S. aureus 1241 [8] stood at 72%. The MICBR80 in the assay with S. aureus 1241 [8] was greater than 31.3 µg/mL. Besides, the “IC50 (µg/mL)” value in assay [9] (HCAEC, cytotoxicity, resazurin, average of 3 repetitions with SEM) is on record as 0.03 ± 0.01 ^i µg/mL; in assay [10] (HDF, cytotoxicity, resazurin, average of 3 repetitions with SEM), 4.35 ± 0.41 ^f µg/mL; in assay [11] (HEK 293, cytotoxicity, 72 h, resazurin, average of 3 repetitions with SEM), 2.75 ± 0.22 ^g µg/mL; in assay [12] (HRTEC, cytotoxicity, resazurin, average of 3 repetitions with SEM), 3.06 ± 0.17 ^g µg/mL; in assay [13] (HaCat, cytotoxicity, resazurin, average of 3 repetitions with SEM), 0.59 ± 0.14 ^h µg/mL.
The term IC50 denotes the concentration at which inhibition is half-maximal. A high value points to weaker potency. As to `CC(=O)N[C@@H](CS)C(=O)O` [NAC, N-Acetyl-L-cysteine], in assay [1], the MICPC80 is on record as 12,500 µg/mL. The MICBF80 in the assay on S. aureus 1241 [2] is 12,500 µg/mL; in the assay on S. aureus 816 [3], 3130 µg/mL. In addition, the MICBM80 is 6250 µg/mL in the assay on S. aureus 1241 [4], 3130 µg/mL with S. aureus 816 [5] and 12,500 µg/mL in assay [6]. Moreover, the MICBC80 with S. Infantis S13 is reported as 6250 µg/mL; with S. Infantis S59, 12,500 µg/mL; in assay [7], 6250 µg/mL. In addition, the “maximal achieved inhibition (MICBR80 not reached), biofilm reduction” value with S. aureus 1241 [8] is reported as 31%. Moreover, the MICBR80 in the assay on S. aureus 1241 [8] was > 100,000 µg/mL. In addition, the IC50 in assay [9] (Homo sapiens, Endothelial cell) is 1830 ± 90 µg/mL (≈ 11.2 mM); in assay [10] (Homo sapiens, Fibroblast) it was 460 ± 20 µg/mL (≈ 2.82 mM); in assay [11] (Homo sapiens, HEK293, 72 h), 1940 ± 250 µg/mL (≈ 11.9 mM); in assay [12] (Homo sapiens, Epithelial cell) it was 1570 ± 70 µg/mL (≈ 9.62 mM); in [13] (Homo sapiens, HaCaT), 4020 ± 470 µg/mL (≈ 24.6 mM).
